The record followed here is patent publication US6916773B2, “Non-surfactant solubilizing agent” (Ecolab, Inc., priority 2002, dated 2005).

Common to all, as to type: physicochemical
Settings in all cases: room temperature

Data set [1] in a line: Sodium benzoate added to aqueous solvent solution until single phase observed (benzyl alcohol). The procedure:
(§1) Aqueous solutions of dipropylene glycol n-butyl ether(DPnB), propylene glycol phenyl ether(PPh), and benzyl alcohol were prepared and sodium benzoate was added at room temperature to each solution until a single phase solution was observed.

The nature of data set [2]: Sodium benzoate added to aqueous solvent solution until single phase observed (PPh). On the procedure: as §1
The nature of data set [3]: Sodium benzoate added to aqueous solvent solution until single phase observed (DPnB). On the procedure: as §1

For `O=C([O-])c1ccccc1.[Na+]` [Na Benzoate, sodium benzoate], the “Na Benzoate at which a single phase solution was observed” value (from here on “Na Benzoate”) in data set [1] (Water 44 wt %, Benzyl Alcohol 44 wt %) turned out to be 12 wt %; in data set [1] (Water 61 wt %, Benzyl Alcohol 26 wt %) it was 13 wt %; in data set [1] (Water 69 wt %, Benzyl Alcohol 17 wt %), 14 wt %; in data set [1] (Water 74 wt %, Benzyl Alcohol 13 wt %) it was 13 wt %; in data set [1] (Water 78 wt %, Benzyl Alcohol 9 wt %) it was 13 wt %; in data set [1] (Water 85 wt %, Benzyl Alcohol 4 wt %), 11 wt %. Also, the “Na Benzoate” value in data set [1] (Water 98 wt %, Benzyl Alcohol 2 wt %) is 0 wt %; in data set [1] (Water 99 wt %, Benzyl Alcohol 1 wt %), 0 wt %; in data set [2] (Water 43 wt %, PPh 43 wt %), 14 wt %; in data set [2] (Water 58 wt %, PPh 25 wt %), 17 wt %; in data set [2] (Water 63 wt %, PPh 16 wt %), 21 wt %; in data set [2] (Water 69 wt %, PPh 12 wt %), 19 wt %. In addition, the “Na Benzoate” value in data set [2] (Water 74 wt %, PPh 8 wt %) worked out at 18 wt %; in data set [2] (Water 79 wt %, PPh 4 wt %), 17 wt %; in data set [2] (Water 83 wt %, PPh 2 wt %) it was 15 wt %; in data set [2] (Water 93 wt %, PPh 1 wt %) it was 6 wt %; in data set [3] (Water 45 wt %, DPnB 45 wt %), 10 wt %; in data set [3] (Water 62 wt %, DPnB 26 wt %), 12 wt %. In addition, the “Na Benzoate” value worked out at 12 wt % in data set [3] (Water 70 wt %, DPnB 18 wt %); 12 wt % in data set [3] (Water 75 wt %, DPnB 13 wt %); 12 wt % in data set [3] (Water 79 wt %, DPnB 9 wt %); 10 wt % in data set [3] (Water 86 wt %, DPnB 4 wt %); 0 wt % in data set [3] (Water 98 wt %, DPnB 2 wt %); 0 wt % in data set [3] (Water 99 wt %, DPnB 1 wt %).
